For orientation: pEC50 means the negative decadic logarithm of the EC50, by convention in mol/L.

Data on seven molecules can be found in patent US20230295201A1 (Gilead Sciences, Inc., priority 2020, published 2023).

Common to all, as to type: cell-based
Test [1] has as its system RSV A2. Nature of the test: RSV NHBE EC50 (RSV A2 antiviral assay in normal human bronchial epithelial cells). The conditions noted are these: NHBE cells, RSV A2, 4 days, read-out: RSV NHBE EC50.
Test [2] concerns HRV16. The experiment in a line: HRV16 HELA EC50 (cytopathic effect in H1-HeLa cells). The method, boiled down: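 Read-out is luminescent cell viability (CellTiter-Glo) after 96 h of infection at 33 °C, scaled between uninfected and infected-untreated wells. Before infection with titrated virus, compounds went onto H1-HeLa cells as triplicate 3-fold dilution series.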
Test [3] relates to RSV strain A2. The experiment in a line: RSV HEp-2 EC50 (infectious cytopathic cell protection assay). The conditions noted are these: HEp-2 cells, RSV A2, 4 days, read-out: RSV HEp-2 EC50. Put shortly:
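Percent inhibition of RSV-induced cytopathic effect came from remaining cell viability (CellTiter-Glo luminescence) after 4 days at 37° C. Compounds in 3-fold serial dilutions were exposed to an infectious mix of titered A2 virus and HEp-2 cells at 50,000/ml, with 0% and 100% inhibition control standards.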
A general note: Cytopathic effects are the visible damage that an infection or toxin causes in cultured cells.

Test [4] concerns DENV2 replicon. Nature of the test: DENV-2 Huh-7 Rep EC50 (replicon luminescence). Conditions: read-out: DENV-2 Huh-7 Rep EC50. The method, boiled down:
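EC50 derived from luminescence dose-response, normalised to DMSO-only 0% inhibition wells, after 1.5 h with EnduRen substrate. Compounds were first exposed for 48 h at 37° C to DENV2 replicon Huh-7 cells (5,000/well).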

Where [5] appears, read: H1-HeLa cells, 96 h, 33° C.; read-out: HRV16 HELA EC50.
The mark [6] stands for this setting: human respiratory syncytial virus, NHBE, 96 h.
Where [7] appears, read: 96 h, H1-HeLa cells, 33° C., read-out: HRV16 HELA EC50.
Where [8] appears, read: human respiratory syncytial virus, HEp-2, 96 h.
The mark [9] stands for this setting: Dengue virus, DENV2, Huh-7, 48 h, Huh-7 replicon cells, 48 hours.
Where [10] appears, read: human respiratory syncytial virus, 96 h.

Molecules are shown by their SMILES. pEC50: −log10 of the molar value. Read-outs that look alike come from different tables or passages of the source.

As for `N#C[C@]1(COP(=O)(NCC(=O)OC2CCCC2)Oc2ccccc2)O[C@@H](c2ccc3c(N)ncnn23)[C@H](O)[C@@H]1O` (single isomer, unassigned) [Example 114], the pEC50 is 6.59 in test [1]; 5.33 in test [2] (setting [5]); 6.01 in test [3]; under 4.30 in test [4] (Huh-7 replicon cells, 48 hours).
For the molecule `C[C@H](N[P@](=O)(OC[C@@]1(C#N)O[C@@H](c2ccc3c(N)ncnn23)[C@@H]2OC(=O)O[C@@H]21)Oc1ccccc1)C(=O)OC1CCCCC1` [Example 168, cyclohexyl ((S)-(((3aS,4R,6S,6aS)-6-(4-aminopyrrolo[2,1-f][1,2,4]triazin-7-yl)-4-cyano-2-oxotetrahydrofuro[3,4-d][1,3]dioxol-4-yl)methoxy)(phenoxy)phosphoryl)-L-alaninate], the pEC50 is 6.99 in test [1] (setting [6]), 6.80 in test [2] (setting [7]), 7.28 in test [3] (setting [8]) and 5.33 in test [4] (setting [9]).
Turning to `CCC(CC)COC(=O)[C@H](CC1CC1)NP(=O)(OC[C@@]1(C#N)O[C@@H](c2ccc3c(N)ncnn23)[C@H](O)[C@@H]1O)Oc1ccccc1` (stereo partly drawn) [Example 132, (2S)-2-ethylbutyl 2-(((((2R,3S,4R,5S)-5-(4-aminopyrrolo[2,1-f][1,2,4]triazin-7-yl)-2-cyano-3,4-dihydroxytetrahydrofuran-2-yl)methoxy)(phenoxy)phosphoryl)amino)-3-cyclopropylpropanoate], the pEC50 in test [1] (setting [6]) is 6.28; in test [2] (setting [7]) it was 4.65; in test [3] (setting [8]), 5.70; in test [4] (setting [9]), 4.35.
`CCC(CC)COC(=O)[C@H](C)NP(=O)(N[C@@H](C)C(=O)OC)OC[C@@]1(C#N)O[C@@H](c2ccc3c(N)ncnn23)[C@H](O)[C@@H]1O` (mixture of isomers) [Example 221, 2-Ethylbutyl ((((2R,3S,4R,5S)-5-(4-aminopyrrolo[2,1-f][1,2,4]triazin-7-yl)-2-cyano-3,4-dihydroxytetrahydrofuran-2-yl)methoxy)(((S)-1-methoxy-1-oxopropan-2-yl)amino)phosphoryl)-L-alaninate]: the negative-log EC50 (pEC50) in test [1] (setting [10]) was under 5.98; in test [2] (setting [5]), 5.07; in test [3] (setting [10]) it was 5.93; in test [4] (Dengue virus, DENV2, Huh-7, 48 h), under 4.00.
For the molecule `CCCCCCCCCCCCCCCCOCCCOC(=O)[C@H](C)NP(=O)(OC[C@@]1(C#N)O[C@@H](c2ccc3c(N)ncnn23)[C@H](O)[C@@H]1O)Oc1ccccc1` (stereo partly drawn) [Example 198, 3-(hexadecyloxy)propyl ((((2R,3S,4R,5S)-5-(4-aminopyrrolo[2,1-f][1,2,4]triazin-7-yl)-2-cyano-3,4-dihydroxytetrahydrofuran-2-yl)methoxy)(phenoxy)phosphoryl)alaninate], the pEC50 was 7.43 in test [1] (setting [6]), 6.26 in test [2] (setting [7]), 6.21 in test [3] (setting [8]) and 4.41 in test [4] (setting [9]).
Consider `CC(C)(C)C(=O)OCCNP(=O)(OCC1(C#N)OC(c2ccc3c(N)ncnn23)C(O)C1O)Oc1ccccc1` (single isomer, unassigned) [Example 12], for which the pEC50 in test [1] was 7.54; in test [2] (setting [5]), 5.72; in test [3], 6.61; in test [4] (Huh-7 replicon cells, 48 hours), under 4.30.
Turning to `C[C@H](NP(=O)(OC[C@@]1(C#N)O[C@@H](c2ccc3c(N)ncnn23)[C@H](O)[C@@H]1O)Oc1ccccc1)C(=O)OCC1CCOCC1` (stereo partly drawn) [Example 20, (tetrahydro-2H-pyran-4-yl)methyl ((((2R,3S,4R,5S)-5-(4-aminopyrrolo[2,1-f][1,2,4]triazin-7-yl)-2-cyano-3,4-dihydroxytetrahydrofuran-2-yl)methoxy)(phenoxy)phosphoryl)-L-alaninate], the pEC50 in test [1] (setting [6]) was 5.65; in test [2] (setting [7]), 5.31; in test [3] (setting [8]) it was 6.06; in test [4] (setting [9]) it was under 4.30.
